Series [1] addresses Luciferin 4-monooxygenase (Photinus pyralis, UniProt P08659). The series is described as follows: inhibition of purified Photinus pyralis luciferase – biochemical, luminescence, dose response (AID 1891).
The nature of series [2]: Luminescence Cell-Based Dose Confirmation HTS to Identify Inhibitors of Platelet Dense Granule Release. [Related pubchem assays: 1663 (Primary HTS), 1678 (Summary of Project)]. The class given is functional.
A short description of series [3]: viability of PTEN-deleted HCT116 cells – cell-based, HCT116 PTEN knockout, dose response (AID 1047).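 Further: HCT116 colon tumor cells with PTEN knocked out; cells exposed to compound for 60 hours before readout; potency for loss of cell viability measured by luminescence.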 The class given is functional.
Series [4] in a line: viability of HCT116 lacking mutant beta-catenin – cell-based, human colon tumor, dose response (AID 1045).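 Further: HCT116 colon tumor cells with beta catenin knocked out; cells exposed to compound for 60 hours.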 The series is classed as functional.
The target in series [5] is T1, Corticotropin-releasing factor receptor 2/Corticotropin-releasing factor-binding protein (Homo sapiens, UniProt P24387+Q13324).
T1 sequence (Q13324 whole entry): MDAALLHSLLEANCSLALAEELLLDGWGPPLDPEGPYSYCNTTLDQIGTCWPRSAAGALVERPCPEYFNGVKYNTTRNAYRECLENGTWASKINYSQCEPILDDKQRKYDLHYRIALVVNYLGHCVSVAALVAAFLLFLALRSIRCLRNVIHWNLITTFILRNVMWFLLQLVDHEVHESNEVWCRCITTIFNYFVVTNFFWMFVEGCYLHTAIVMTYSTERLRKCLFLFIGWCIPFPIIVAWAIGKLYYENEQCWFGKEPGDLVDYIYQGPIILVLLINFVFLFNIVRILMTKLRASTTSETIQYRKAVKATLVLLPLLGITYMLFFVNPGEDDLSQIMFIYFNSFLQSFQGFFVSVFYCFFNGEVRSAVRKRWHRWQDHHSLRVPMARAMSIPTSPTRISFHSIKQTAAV
T1 sequence (P24387 whole entry): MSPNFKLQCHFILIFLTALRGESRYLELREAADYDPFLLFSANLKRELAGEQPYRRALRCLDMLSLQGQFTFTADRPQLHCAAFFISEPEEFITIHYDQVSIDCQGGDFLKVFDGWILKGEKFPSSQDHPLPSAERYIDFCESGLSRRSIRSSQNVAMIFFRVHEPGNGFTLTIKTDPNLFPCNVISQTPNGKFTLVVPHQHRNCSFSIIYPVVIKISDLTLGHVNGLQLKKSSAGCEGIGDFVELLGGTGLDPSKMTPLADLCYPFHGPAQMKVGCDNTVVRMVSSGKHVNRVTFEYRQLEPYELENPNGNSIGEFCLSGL
The series is described as follows: activators of CRF receptor 2 with binding protein – uHTS hits, confirmation (AID 602473). The class given is functional. The conditions noted are these: read-out: EC50_Mean.

Series [6] in a line: luciferase reporter signal suppression in cells – H4 neuroglioma cells, luminescence, dose response (AID 1990). The class given is functional, cell-based. On the technique in general: Reporter assays use an easily measured gene product as a stand-in for the process of interest.
A short description of series [7]: alpha-synuclein stem-loop luciferase translation blockers – H4 neuroglioma cells, luminescence, confirmation (AID 1988). The class given is functional, cell-based.
The subject of series [8] is Streptococcus. In words: GAS UMAA2166 growth inhibition – luminescence, BacTiterGlo, counter-screen for streptokinase expression inhibitor project, dose response (AID 1915).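 Further: potency for reduction of bacterial viability or growth.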 The class given is functional, organism-based. In general terms: Counterscreens check selectivity or assay interference.
Series [9] can be described thus: Luminescence Cell-Based Dose Response HTS to Identify Inhibitors of 5'UTR Stem-Loop Driven Prion Protein mRNA Translation in H4 Neuroglioblastoma Cells. [Related pubchem assays: 1827 (Project Summary), 1813 (Primary HTS)]. The class given is functional.
Series [10] concerns Streptococcus sp. 'group A'. In words: Streptococcus pyogenes SK(-)GAS viability under kanamycin – luminescence, BacTiterGlo, confirmation, counter-screen for streptokinase expression inhibitor project, dose response (AID 1900). The class given is functional, organism-based.
Series [11] can be described thus: Luminescence Cell-Based Dose Retest to Confirm Inhibitors of Cancer Stem Cells. [Related pubchem assays (depositor defined):AID2717, AID2721]. The conditions noted are these: Homo sapiens. The class given is functional.
Series [12] in a line: blockers of HIV-1 envelope-mediated cell-cell fusion – cherry-pick, dose response (AID 652057). The series is classed as functional, cell-based.
Series [13] in a line: HIV-1 AD8 envelope cell-cell fusion blockers – cherry-pick, dose response (AID 652062).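 Further: luciferase signal from cell-cell fusion driven by HIV-1 clade B AD8 Env; potency is for inhibitors of fusion seen as a drop in luminescence.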 The class given is functional, cell-based.
Series [14] addresses FAD-linked sulfhydryl oxidase ALR (Homo sapiens, UniProt P55789). The series is described as follows: ALR-catalysed DTT oxidation blockers – biochemical, H2O2 detection, luminescence, cherry-pick, dose response (AID 493248).
Series [15] in a line: cells. The class given is functional.
Series [16] concerns the target Cytochrome P450 2C19 (Homo sapiens, UniProt P33261). The series is described as follows: Cytochrome panel assay with activity outcomes. Panel member name: p450-cyp2c19 Compounds with AC50 equal or less than 10 uM are considered active. The series is classed as functional.
Series [17] concerns the target Cytochrome P450 3A4 (Homo sapiens, UniProt P08684).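 Further: CYP3A4 tested as one member of a cytochrome P450 panel screen.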
Series [18] deals with T2, Heat shock factor protein 1 (Mus musculus, UniProt P38532).
T2 sequence (P38532 whole entry): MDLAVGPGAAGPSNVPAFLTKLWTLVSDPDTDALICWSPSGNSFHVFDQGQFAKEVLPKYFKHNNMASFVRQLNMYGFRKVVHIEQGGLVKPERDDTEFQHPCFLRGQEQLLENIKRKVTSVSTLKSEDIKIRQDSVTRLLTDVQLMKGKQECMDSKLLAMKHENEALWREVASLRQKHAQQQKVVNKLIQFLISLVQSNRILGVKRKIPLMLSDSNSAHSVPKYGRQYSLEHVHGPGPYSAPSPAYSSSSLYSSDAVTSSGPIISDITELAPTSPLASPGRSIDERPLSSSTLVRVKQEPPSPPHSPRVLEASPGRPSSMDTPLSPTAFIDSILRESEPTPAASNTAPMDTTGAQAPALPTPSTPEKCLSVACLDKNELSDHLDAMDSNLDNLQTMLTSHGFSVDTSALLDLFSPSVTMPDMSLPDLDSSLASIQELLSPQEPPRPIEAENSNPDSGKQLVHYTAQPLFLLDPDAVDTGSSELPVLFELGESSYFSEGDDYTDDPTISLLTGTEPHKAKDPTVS
The series is described as follows: enhancement of HSF1-driven luciferase signal – cell-based, NIH3T3, luminescence, dose retest, confirmation (AID 435004).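 Further: stress induced by proteasome inhibitor MG132 added 30 min after compound; luciferase reporter driven by HSF1 response element in NIH3T3 cells; actives raise luminescence as potentiators of the MG132 stress response.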 The class given is functional.

A short description of series [19]: viability of uninfected HEp-2 cells – cell-based, HTS, cytotoxicity control for RSV inhibitor project, dose response (AID 2410). The following applies: human respiratory syncytial virus. The series is classed as functional.

One may read the AC50 as the concentration at which the activity in the assay is half-maximal. By IC50 is commonly meant the concentration needed to halve the response being measured. What is called CC50 is the concentration giving 50% cytotoxicity.

The source made the active and inactive calls.

Luciferin 4-monooxygenase, sequence (P08659 whole entry): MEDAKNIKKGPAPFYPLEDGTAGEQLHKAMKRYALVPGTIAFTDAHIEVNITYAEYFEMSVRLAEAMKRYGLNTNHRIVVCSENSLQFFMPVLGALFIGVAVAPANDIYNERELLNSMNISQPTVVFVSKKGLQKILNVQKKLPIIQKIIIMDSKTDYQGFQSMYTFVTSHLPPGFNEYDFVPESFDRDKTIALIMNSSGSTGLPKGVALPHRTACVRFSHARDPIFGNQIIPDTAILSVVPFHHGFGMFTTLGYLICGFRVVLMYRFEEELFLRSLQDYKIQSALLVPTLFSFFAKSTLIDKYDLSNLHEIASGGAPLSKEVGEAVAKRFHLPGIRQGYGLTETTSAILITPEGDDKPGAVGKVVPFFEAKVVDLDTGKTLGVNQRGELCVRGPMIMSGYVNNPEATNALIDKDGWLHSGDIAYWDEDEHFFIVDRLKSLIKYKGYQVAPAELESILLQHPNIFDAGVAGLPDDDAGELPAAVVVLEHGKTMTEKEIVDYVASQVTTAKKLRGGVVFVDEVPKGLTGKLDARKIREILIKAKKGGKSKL
FAD-linked sulfhydryl oxidase ALR, sequence (P55789 whole entry): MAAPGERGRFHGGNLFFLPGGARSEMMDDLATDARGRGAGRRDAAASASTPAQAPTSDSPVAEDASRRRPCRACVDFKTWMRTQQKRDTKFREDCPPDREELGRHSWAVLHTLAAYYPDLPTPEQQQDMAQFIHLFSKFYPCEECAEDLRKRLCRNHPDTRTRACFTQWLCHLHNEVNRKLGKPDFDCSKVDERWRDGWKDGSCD
Cytochrome P450 3A4, sequence (P08684 whole entry): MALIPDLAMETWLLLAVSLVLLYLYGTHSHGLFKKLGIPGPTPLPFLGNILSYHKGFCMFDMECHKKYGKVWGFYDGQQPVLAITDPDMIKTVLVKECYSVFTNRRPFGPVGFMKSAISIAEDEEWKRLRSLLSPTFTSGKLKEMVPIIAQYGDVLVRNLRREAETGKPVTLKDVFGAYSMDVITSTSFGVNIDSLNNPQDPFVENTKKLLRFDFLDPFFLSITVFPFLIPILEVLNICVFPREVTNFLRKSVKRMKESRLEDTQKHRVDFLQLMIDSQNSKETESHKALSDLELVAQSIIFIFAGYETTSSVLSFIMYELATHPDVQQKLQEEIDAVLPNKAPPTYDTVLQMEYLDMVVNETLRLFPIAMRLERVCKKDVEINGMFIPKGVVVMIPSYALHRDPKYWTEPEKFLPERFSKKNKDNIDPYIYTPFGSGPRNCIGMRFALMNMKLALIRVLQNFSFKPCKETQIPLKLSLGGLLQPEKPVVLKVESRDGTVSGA
Cytochrome P450 2C19, sequence (P33261 whole entry): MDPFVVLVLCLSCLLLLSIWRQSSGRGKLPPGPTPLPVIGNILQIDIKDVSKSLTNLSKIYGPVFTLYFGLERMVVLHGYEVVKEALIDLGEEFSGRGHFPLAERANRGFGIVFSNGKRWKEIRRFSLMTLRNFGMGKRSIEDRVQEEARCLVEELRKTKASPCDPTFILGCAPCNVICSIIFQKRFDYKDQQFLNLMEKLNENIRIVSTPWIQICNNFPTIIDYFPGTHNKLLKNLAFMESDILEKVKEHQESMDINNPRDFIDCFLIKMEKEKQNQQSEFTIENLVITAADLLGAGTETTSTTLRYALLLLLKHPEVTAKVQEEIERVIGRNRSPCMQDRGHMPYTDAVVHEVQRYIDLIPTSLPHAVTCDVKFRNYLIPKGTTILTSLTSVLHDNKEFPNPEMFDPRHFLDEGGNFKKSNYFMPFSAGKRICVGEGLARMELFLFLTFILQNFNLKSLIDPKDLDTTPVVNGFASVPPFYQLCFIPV

For the molecule `COc1ccc(CCNC(=O)CSc2nc(N)c3c(C)c(C)oc3n2)cc1OC`, the EC50 in series [1] and in series [2] was > 112 µM (not active) throughout.
In the case of `COc1cccc(C(=O)Nc2ccc(Cl)c(C(F)(F)F)c2)c1`, the EC50 in [3] is 43.3 µM (active); in series [4], 60.1 µM (active).
Consider `Cc1ccc(CNC(=O)CCS(=O)(=O)c2ccc(Br)s2)o1`, for which the EC50 in [1] and in series [2] was > 112 µM (not active) throughout.
As to `COc1cccc(/C(O)=C/c2nc3ccc(C(=O)NCCc4ccc(Cl)cc4)cc3nc2O)c1`, the EC50 in series [3] is 4.26 µM (active); in [4] it was 4.16 µM (active); in series [5], 5.02 µM (active).
For the molecule `C=C(C)CN=C(S)NNC(=O)CCn1c2ccc(Cl)cc2c2cc(Cl)ccc21`, the EC50 in series [6] was > 120 µM (not active); in series [7], > 120 µM (not active); in [8], 8.01 µM (active); in [9], > 120 µM (not active); in series [10], 2.84 µM (active). For the same molecule, in series [11], the concentration at half-maximal activity (AC50) is 1.44 µM (active).
As for `Cn1nnnc1SCC(=O)NC1CCCc2ccccc21` (stereo not given), the EC50 in series [1] and in series [2] was > 112 µM (not active) in each case.
Regarding `c1ccc(CN2CCC(Nc3nc(-c4cccs4)nc4ccccc34)CC2)cc1`, the AC50 in [11] is 4.2 µM (active).
For `O=C(NCc1ccc2c(c1)OCO2)C1CCN(S(=O)(=O)c2ccc(F)cc2)CC1`, the EC50 in series [1] and in series [2] was > 112 µM (not active) each time.
As to `CCCCNCc1cc(Br)c(OCc2cccs2)c(OC)c1`, the values for the EC50 in [3] and in series [4] were 17 µM (active) and 16.6 µM (active), respectively.
With `CCCN1[C@H](C(=O)N[C@@H](C)c2ccccc2)[C@@H](CO)[C@@H]2Cn3c(ccc(-c4cccc(F)c4)c3=O)[C@@H]21`, the AC50 in series [12] was 41.5 µM (active).
On to `Cc1ccc2[nH]c3nc(N/N=C/c4cccc(O)c4)nnc3c2c1`, for which, in series [11], the AC50 is < 0.16 µM (active).
On to `Cc1ccc(S(=O)(=O)N(C)C[C@@H]2Oc3ccc(NC(=O)Nc4ccc5c(c4)OCO5)cc3C(=O)N([C@H](C)CO)C[C@@H]2C)cc1`, for which the figures for the half-maximal activity concentration (AC50) in series [12] and in [13] were 2.48 µM (active) and 5.55 µM (active), respectively.
As for `CCOC(=O)c1cnc2c([N+](=O)[O-])cnn2c1C`, the EC50 in series [1] and in [2] was > 112 µM (not active) each time.
As to `C[C@H](CO)N1C[C@H](C)[C@H](CN(C)S(=O)(=O)c2ccccc2)Oc2ccc(NS(=O)(=O)c3ccccc3)cc2CC1=O`, the AC50 was 8.48 µM (active) in [12] and 13.6 µM (active) in series [13].
On to `COc1ccc(S(=O)(=O)N(C)C[C@@H]2Oc3ccc(N(C)C)cc3C(=O)N([C@H](C)CO)C[C@@H]2C)cc1`, for which the concentration at half-maximal activity (AC50) is 12 µM (active) in series [12] and 26.4 µM (active) in [13].
With `O=C(Nc1ccc(Cl)c(Cl)c1)Nc1ccccc1C(=O)O`, the results for the EC50 in series [1] and in series [2] were 0.12 µM (active) and 8.59 µM (active), respectively. In addition, the concentration at half-maximal activity (AC50) in [14] was 182 nM (active).
`COc1cc(NC(=O)C/C(C)=N/NC(=O)c2cccs2)c(OC)cc1Cl`: the concentration for half-maximal inhibition (IC50) in series [15] was 2.79 µM (active).
As for `O=C(COC(=O)CCc1c[nH]c2ccccc12)NCc1ccc2c(c1)OCO2`, in series [15], the IC50 was 11.3 µM (active).
For `CC(C)Nc1nc(NC(C)(C)C)nc(Oc2ccc(=O)n(-c3ccccc3)n2)n1`, the EC50 in [1] and in [2] was > 112 µM (not active) throughout. Moreover, the values for the AC50 result in series [16] and in series [17] were “inconclusive” and 12.6 µM (inconclusive), respectively.
As for `O=C(NNC1=Nc2cccc3cccc1c23)c1ccccc1Br`, the EC50 is 21.9 µM (active) in [3] and 20.8 µM (active) in [4].
As to `CCCNC(=O)COC(=O)/C=C/c1ccco1`, the EC50 in series [1] and in series [2] was > 112 µM (not active) throughout.
As to `COC(=O)c1nn(-c2ccccc2)c(Sc2ccc(OC)cc2)c1/C=N/O`, the EC50 in series [1] is > 112 µM (not active); in [2] it was 28.5 µM (active).
The like results for `O=C1c2ccccc2C(Nc2ccc(Cl)cn2)N1c1ccccn1` (stereo not given) were, in that order, > 112 µM (not active) and > 112 µM (not active).
Turning to `C[C@@H]1CN([C@H](C)CO)C(=O)c2cccc(NS(=O)(=O)c3ccccc3)c2O[C@@H]1CN(C)Cc1ccc(Cl)c(Cl)c1`, the AC50 in series [12] was < 0.26 µM (active); in series [13], 1.67 µM (active).
Regarding `CCn1c2ccccc2c2cc(NC(=O)CSc3nnc(-c4cccc(OC)c4)n3N)ccc21`, the values for the EC50 in series [3], in [4] and in [18] were 32.1 µM (active), 31.5 µM (active) and 33.9 µM (active), respectively.
Turning to `CC(C)Oc1cccc(C(=O)NC(=S)Nc2ccccc2N2CCOCC2)c1`, in [11], the AC50 was 4.53 µM (active).
Still for that read-out and setting: next, `Cc1ccc(C(C[N+](=O)[O-])n2nc(C)cc2C)cc1` (stereo not given): 13 µM (active).
In the case of `C=C(C)COc1ccc(-c2nc(N)ncc2-c2ccc(Br)cc2)c(O)c1`, in [19], the 50% cytotoxic concentration (CC50) is 15.7 µM (active). The AC50 in series [11] is 5.37 µM (active).
As for `Clc1nccnc1N/N=C/c1ccc(Br)cc1`, the EC50 was 2.82 µM (active) in series [1] and 4.81 µM (active) in series [2].

For the origin of these results see ChEMBL document CHEMBL1201862, “PubChem BioAssay data set” (2004).
